Laboratory results: US11786528B2, “Pyrazolopyrimidine compounds as adenosine receptor antagonists” (EXSCIENTIA LTD., priority 2018, dated 2023)
Values after ≈ are worked out from the molar mass of the structure shown.

Legend:
[1] = biological target: human adenosine receptor sub-type A2a (wild type) (Homo sapiens (Human), UniProt P29274); experiment: Affinity for human adenosine A2a receptor by surface plasmon resonance (SPR); type: binding
Protocol: (§1) Affinity for the human adenosine receptor sub-types (A2a, A2b, A1 and A3) was determined by surface plasmon resonance (SPR) using published methodologies (see below for further details).
(§2) Affinity for the human adenosine receptor sub-types (A2a, A2b, A1 and A3) was determined by SPR as described in Aristotelous, T., et al, Methods in Enzymology (2015), Volume 556, Chapter 23, pages 499-525 and Congreve, M., et al, J Med Chem (2012), Vol. 55, pages 1898-1903. The method used was analogous to the method used in Congreve, M., et al (see supplementary page S10) for the A2a receptor, but the wild type receptor was used rather than the proprietary StaR form.

[2] = biological target: human adenosine receptor sub-type A1 (Homo sapiens (Human), UniProt P30542); experiment: Affinity for human adenosine A1 receptor by SPR; type: binding; settings: for IC50: SPR, human A1 receptor; for Relative selectivity for A2a v. A1: from SPR IC50 values, rounded to 2 significant figures
Sequence of human adenosine receptor sub-type A1 (P30542 whole entry): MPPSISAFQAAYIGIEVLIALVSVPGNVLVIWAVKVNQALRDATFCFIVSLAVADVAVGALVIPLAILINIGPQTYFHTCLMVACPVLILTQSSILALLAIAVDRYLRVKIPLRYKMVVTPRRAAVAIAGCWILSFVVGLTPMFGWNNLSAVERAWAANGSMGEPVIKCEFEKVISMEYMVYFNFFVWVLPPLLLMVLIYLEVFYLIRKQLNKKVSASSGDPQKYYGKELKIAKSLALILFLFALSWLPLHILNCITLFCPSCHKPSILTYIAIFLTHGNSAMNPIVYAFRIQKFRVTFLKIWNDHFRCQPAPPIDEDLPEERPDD
Protocol: as §1, §2

[3] = biological target: human adenosine receptor sub-type A3 (Homo sapiens (Human), UniProt P0DMS8); experiment: Affinity for human adenosine A3 receptor by SPR; type: binding; settings: for Relative selectivity for A2a v. A3: from SPR IC50 values, rounded to 2 significant figures
Sequence of human adenosine receptor sub-type A3 (P0DMS8 whole entry): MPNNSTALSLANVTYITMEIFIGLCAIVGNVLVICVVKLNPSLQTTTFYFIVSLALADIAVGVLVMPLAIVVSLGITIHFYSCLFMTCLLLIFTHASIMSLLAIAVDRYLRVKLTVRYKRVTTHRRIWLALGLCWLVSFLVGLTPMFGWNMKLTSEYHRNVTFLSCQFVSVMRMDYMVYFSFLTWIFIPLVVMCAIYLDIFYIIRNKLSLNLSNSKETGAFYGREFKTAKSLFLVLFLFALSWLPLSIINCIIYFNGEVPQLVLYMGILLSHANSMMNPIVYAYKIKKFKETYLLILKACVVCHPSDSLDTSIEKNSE
Protocol: as §1, §2

[4] = biological target: human adenosine receptor sub-type A2b (Homo sapiens (Human), UniProt P29275); experiment: Affinity for human adenosine A2b receptor by SPR; type: binding; settings: for IC50: SPR, human A2b receptor; for Relative selectivity for A2a v. A2b: from SPR IC50 values, rounded to 2 significant figures
Sequence of human adenosine receptor sub-type A2b (P29275 whole entry): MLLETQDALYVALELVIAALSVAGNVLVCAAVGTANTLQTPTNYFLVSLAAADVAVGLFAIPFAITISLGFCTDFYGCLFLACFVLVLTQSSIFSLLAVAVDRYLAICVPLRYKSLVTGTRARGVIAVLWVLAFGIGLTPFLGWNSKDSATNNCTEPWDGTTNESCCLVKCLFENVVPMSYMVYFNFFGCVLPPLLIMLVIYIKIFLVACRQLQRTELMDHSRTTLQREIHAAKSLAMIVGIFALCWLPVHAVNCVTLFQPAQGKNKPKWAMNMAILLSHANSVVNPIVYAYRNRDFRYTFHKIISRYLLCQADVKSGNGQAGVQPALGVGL
Protocol: as §1, §2

[5] = biological target: human A2a receptors (HEK 293 transfected) (Homo sapiens (Human), UniProt P29274); experiment: Inhibition of cAMP release in HEK-A2aR cells (HTRF, LANCE Ultra cAMP); type: cell-based; settings: 3 nM NECA, 10 min
Sequence of human A2a receptors (HEK 293 transfected) (P29274 whole entry): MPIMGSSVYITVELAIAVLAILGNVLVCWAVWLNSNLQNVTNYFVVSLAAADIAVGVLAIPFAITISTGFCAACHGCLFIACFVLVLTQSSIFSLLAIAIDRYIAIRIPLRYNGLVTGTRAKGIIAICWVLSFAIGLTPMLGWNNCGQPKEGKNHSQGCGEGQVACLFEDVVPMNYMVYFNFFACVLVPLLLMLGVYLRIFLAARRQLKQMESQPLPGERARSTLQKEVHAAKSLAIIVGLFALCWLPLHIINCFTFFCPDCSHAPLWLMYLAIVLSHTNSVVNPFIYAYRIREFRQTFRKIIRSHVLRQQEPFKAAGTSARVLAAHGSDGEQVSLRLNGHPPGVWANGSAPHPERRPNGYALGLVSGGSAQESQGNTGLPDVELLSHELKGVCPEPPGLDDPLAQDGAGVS
Protocol: Functional activity was measured by inhibition of cAMP release in HEK cells (see below for further details).
To screen A2a receptor inhibitors by HTRF technology, about 500 HEK-A2aR cells (HEK 293 transfected with human A2a receptors) were treated with inhibitors in presence of stimulation buffer (1×HBSS, 5 mM HEPES, 0.1% BSA stabilizer, pH 7.4) supplemented with 30 μM phosphodiesterase inhibitor Rolipram (to prevent cAMP degradation). This stimulation was immediately followed by treatment with 3 nM standard A2aR agonist (NECA) for 10 min under gentle shaking at room temperature. After that, inhibition of cAMP release was determined directly using LANCE Ultra cAMP assay (Perkin Elmer TRF0263).
All analysis was performed using GraphPad Prism 7.0 (GraphPad Software, San Diego, USA). Results are given, as EC50 (M).

Solubility = type: physicochemical; settings: water (or specific buffer), thermodynamic from solid, overnight stirring at ambient temperature, LC-UV
Description: The test compound in solid form was suspended in water (or specific buffer). After overnight stirring at ambient temperature protected from light, suspensions were filtered. An aliquot of the resulting supernatant was quantified using LC-UV method against a reference solution in DMSO obtained by preparation from powder.

MCA-205 tumor = experiment: Inhibition of the growth of MCA-205 tumor in syngeneic mice; type: in vivo, mouse; settings: 30 mg/kg BID oral gavage, 11 consecutive days from day 10; day 19 to study termination; p<0.005 and p<0.001
Protocol: C57/BI6JRjJL female mice (9-10 weeks old from Janvier Laboratories) were engrafted in subcutaneous location with 0.25.10^6 MCA-205 cells (suspended in 100% PBS buffer, fibrosarcoma cell line kindly provided by Dr. J. Stagg, Universite de Montréal, Canada). Mice were then kept in a post-operative cabinet at 28° C. until complete recovery.
Randomization of mice was performed on day 9 post-cell inoculation, after measurement of tumour volumes using a digital caliper. Assuming an ovoid form of the tumour, the following formula was applied: Volume=0.52×(width)^2×length. Width and length were expressed in mm, volume in mm^3. Twenty-six female mice were allocated in two groups: vehicle and Example 1 (n=13 mice/group). Oral gavage with vehicle (control group, PEG200/Soluplus 10% in Citrate Buffer pH3 at 50 mM (50%/50% w/v)) or Example 1 solubilized in the vehicle at 30 mg/kg in BID (twice daily administrations by oral gavage with a volume of administration of 5 ml/kg) was initiated 10 days after cell inoculation and continued for 11 consecutive days.

[6] = system: human primary CD3+ T-cells; experiment: Recovery of 2-chloroadenosine (CADO) mediated inhibition of IL-2 production; type: cell-based; settings: T-cell, two donors, 10 μM CADO, 48 hours
Protocol: CD3^+ cells were isolated from Buffy Coat of two human healthy donors (Donor 1: D1 and Donor 2: D2) with the RosetteSep technology (RosetteSep Human T cell enrichment cocktail from Stem Cell) according to provider's instructions. T-cells were then stimulated with anti-CD3 mAb, anti-CD28 mAb coated beads (Dynabeads® Human T-Activator CD3/CD28 (Thermo Fisher Scientific) in a complete medium containing 10% fetal bovine serum in the presence or not of Example 1. After one hour incubation time, CADO (2-chloroadenosine, Abcam Biochemical) at 10 μM was added to the culture. After 48 hours of stimulation at 37° C., 5% CO2 and a short centrifugation, culture supernatant were harvested and stored at −80° C. for further evaluation by ELISA. In the meantime, a staining with a living dye was performed to access compound-induced toxicity. Il-2 measurement was performed by using the Human IL-2 Uncoated ELISA (Invitrogen) following data sheet instructions. To access the percentage of IL-2 inhibition induced by 10 μM CADO, the calculation used control condition (cells stimulated in basal condition). Then to access compound-induced recovery of IL-2 production, each dose was normalized following this formula: ([sample]−[mean of CADO])/([mean of basal condition]−[mean of CADO])*100. Compounds normalization was performed per plate. […]

Sequence of human adenosine receptor sub-type A2a (wild type) (P29274 whole entry): as above

In the case of `COc1ccccc1Cn1cc2c(N)nc(-c3ccc(C)o3)nc2n1` [Comparative Example 1, reference compound], the IC50 [1] is reported as 0.0022 µM, the IC50 [2] is reported as 0.114 µM and the “Relative selectivity for A2a v. A1” value [2] is reported as 51. For the same molecule, the IC50 ([3]; SPR, human A3 receptor) was 1.97 µM, the “Relative selectivity for A2a v. A3” value [3] was 900 and the IC50 [4] was 4.91 µM. For the same molecule, the “Relative selectivity for A2a v. A2b” value [4] was 2200, the EC50 [5] was 0.018 µM and the solubility (Solubility) was 1 µg/mL (≈ 2.98 µM).
For `Cc1cccc(Cn2cc3c(N)nc(-c4ccsn4)nc3n2)c1` [Example 1, 2-[(3-methylphenyl)methyl]-6-(1,2-thiazol-3-yl)-2H-pyrazolo[3,4-d]pyrimidin-4-amine], the mean tumor volume (MCA-205 tumor) was “significant inhibition of the mean tumor volume”, the EC50 [6] was 0.56 µM and the IC50 [1] was 0.0035 µM. For the same molecule, the IC50 [2] was 3.1 µM, the “Relative selectivity for A2a v. A1” value [2] was 890 and the IC50 ([3]; SPR, human A3 receptor) was 35.8 µM. The “Relative selectivity for A2a v. A3” value [3] was 10000, the IC50 [4] was 1.5 µM and the “Relative selectivity for A2a v. A2b” value [4] was 430. It also gave an EC50 [5] of 0.004 µM.
`COc1cccc(Cn2cc3c(N)nc(-c4nccs4)nc3n2)c1` [Example 8, 2-[(3-methoxyphenyl)methyl]-6-(1,3-thiazol-2-yl)-2H-pyrazolo[3,4-d]pyrimidin-4-amine] showed an IC50 [1] of 0.011 µM, an EC50 [5] of 0.023 µM and a solubility (Solubility) greater than 10 µg/mL.
In the case of `COc1cccc(Cn2cc3c(N)nc(-c4cnco4)nc3n2)c1` [Example 11, 2-[(3-methoxyphenyl)methyl]-6-(1,3-oxazol-5-yl)-2H-pyrazolo[3,4-d]pyrimidin-4-amine], the IC50 [1] is reported as 0.0049 µM, the IC50 [2] is reported as 0.35 µM and the “Relative selectivity for A2a v. A1” value [2] is reported as 71. The IC50 ([3]; SPR, human A3 receptor) was 21 µM, the “Relative selectivity for A2a v. A3” value [3] was 4300 and the IC50 [4] was 0.58 µM. The “Relative selectivity for A2a v. A2b” value [4] was 120, the EC50 [5] was 0.07 µM and the solubility (Solubility) was greater than 10 µg/mL.
In the case of `Cc1ccc(Cn2cc3c(N)nc(-c4ccsn4)nc3n2)cc1F` [Example 19, 2-[(3-fluoro-4-methylphenyl)methyl]-6-(1,2-thiazol-3-yl)-2H-pyrazolo[3,4-d]pyrimidin-4-amine], the IC50 [1] is reported as 0.0056 µM, the IC50 [2] is reported as 1.18 µM and the “Relative selectivity for A2a v. A1” value [2] is reported as 210. The “A3 SPR IC50” value ([3]; SPR, human A3 receptor) was “Non-”, the “Relative selectivity for A2a v. A3” value [3] was greater than 10000 and the IC50 [4] was 1.45 µM. For the same molecule, the “Relative selectivity for A2a v. A2b” value [4] was 260, the EC50 [5] was 0.084 µM and the solubility (Solubility) was greater than 5 µg/mL.
With `Cc1ccc(Cn2cc3c(N)nc(-c4ccsn4)nc3n2)cc1C(F)(F)F` [Example 24, 2-{[4-methyl-3-(trifluoromethyl)phenyl]methyl}-6-(1,2-thiazol-3-yl)-2H-pyrazolo[3,4-d]pyrimidin-4-amine] the IC50 [1] was 0.0079 µM, the IC50 [2] was 1.42 µM and the “Relative selectivity for A2a v. A1” value [2] was 180. The IC50 ([3]; SPR, human A3 receptor) was 49.9 µM, the “Relative selectivity for A2a v. A3” value [3] was 6300 and the IC50 [4] was 25.6 µM. For the same molecule, the “Relative selectivity for A2a v. A2b” value [4] was 3200 and the EC50 [5] was 0.011 µM.
Molecule `Cc1cccc(Cn2cc3c(N)nc(-c4cnccn4)nc3n2)c1` [Example 27, 2-[(3-methylphenyl)methyl]-6-(pyrazin-2-yl)-2H-pyrazolo[3,4-d]pyrimidin-4-amine] has an IC50 [1] of 0.0032 µM, an EC50 [5] of 0.007 µM and a solubility (Solubility) greater than 50 µg/mL.
With `Nc1nc(-c2ccsn2)nc2nn(Cc3cccc(Cl)c3)cc12` [Example 35, 2-[(3-chlorophenyl)methyl]-6-(1,2-thiazol-3-yl)-2H-pyrazolo[3,4-d]pyrimidin-4-amine] the IC50 [1] was 0.0042 µM, the IC50 [2] was 0.29 µM and the “Relative selectivity for A2a v. A1” value [2] was 69. The IC50 ([3]; SPR, human A3 receptor) was 4.7 µM, the “Relative selectivity for A2a v. A3” value [3] was 1100 and the IC50 [4] was 0.53 µM. The “Relative selectivity for A2a v. A2b” value [4] was 130, the EC50 [5] was 0.06 µM and the solubility (Solubility) was greater than 10 µg/mL.
In the case of `COc1ccccc1Cn1cc2c(N)nc(-c3cnccn3)nc2n1` [Example 37, 2-[(2-methoxyphenyl)methyl]-6-(pyrazin-2-yl)-2H-pyrazolo[3,4-d]pyrimidin-4-amine], the IC50 [1] is reported as 0.0027 µM, the EC50 [5] is reported as 0.082 µM and the solubility (Solubility) is reported as greater than 10 µg/mL.
In the case of `COc1ccccc1Cn1cc2c(N)nc(-c3ccsn3)nc2n1` [Example 38, 2-[(2-methoxyphenyl)methyl]-6-(1,2-thiazol-3-yl)-2H-pyrazolo[3,4-d]pyrimidin-4-amine], the IC50 [1] is reported as 0.0043 µM, the IC50 [2] is reported as 3.4 µM and the “Relative selectivity for A2a v. A1” value [2] is reported as 790. For the same molecule, the IC50 ([3]; SPR, human A3 receptor) was 44.3 µM, the “Relative selectivity for A2a v. A3” value [3] was 10000 and the IC50 [4] was 11.7 µM. The “Relative selectivity for A2a v. A2b” value [4] was 2700 and the EC50 [5] was 0.013 µM.
For `COc1ccccc1Cn1cc2c(N)nc(-c3cnco3)nc2n1` [Example 40, 2-[(2-methoxyphenyl)methyl]-6-(1,3-oxazol-5-yl)-2H-pyrazolo[3,4-d]pyrimidin-4-amine], the IC50 [1] was 0.002 µM, the IC50 [2] was 0.99 µM and the “Relative selectivity for A2a v. A1” value [2] was 500. For the same molecule, the IC50 ([3]; SPR, human A3 receptor) was 46.2 µM, the “Relative selectivity for A2a v. A3” value [3] was 23000 and the IC50 [4] was 1.46 µM. For the same molecule, the “Relative selectivity for A2a v. A2b” value [4] was 730 and the EC50 [5] was 0.013 µM.
`COc1ccc(Cn2cc3c(N)nc(-c4cnccn4)nc3n2)cc1OC` [Example 41, 2-[(3,4-dimethoxyphenyl)methyl]-6-(pyrazin-2-yl)-2H-pyrazolo[3,4-d]pyrimidin-4-amine] showed an IC50 [1] of 0.589 µM and a solubility (Solubility) greater than 50 µg/mL.
With `Nc1nc(-c2ccsn2)nc2nn(Cc3ccccc3O)cc12` [Example 44, 2-{[4-amino-6-(1,2-thiazol-3-yl)-2H-pyrazolo[3,4-d]pyrimidin-2-yl]methyl}phenol] the IC50 [1] was 0.015 µM, the EC50 [5] was 0.127 µM and the solubility (Solubility) was greater than 50 µg/mL.
